Results from the supplement of paper PMC11061612.

Key:
[1] = tested on: CAL-85-1 (Breast Carcinoma); assay: Bliss excess, mean over the matrix (fraction); higher = more synergy
Outline: (§1)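 Cell lines grown in DMEM/F12 or RPMI with 10% FBS were plated in 1536-well plates and held 24 hours at 37°C, 5% CO2 before 72 hours of exposure to two-drug dose matrices, with DMSO typically at 0.2%. CellTiter-Glo 2.0 luminescence gave viability, which was converted to inhibition. Vehicle wells were set to 0 and blank wells to 1. Combination Emax is the second-highest inhibition in the matrix, and Bliss excess is the observed combination effect minus the expected EA + EB − EA·EB, where EA and EB are the single-agent effects.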

[2] = tested on: GCIY (Gastric Carcinoma); assay: as above
Outline: as §1

[3] = tested on: HT-144 (Melanoma); assay: as above
Outline: as §1

[4] = tested on: IGROV-1 (Ovarian Carcinoma); assay: as above
Outline: as §1

[5] = tested on: JURL-MK1 (Chronic Myelogenous Leukemia); assay: as above
Outline: as §1

[6] = tested on: MG-63 (Osteosarcoma); assay: as above
Outline: as §1

[7] = tested on: NCI-H1435 (Non-Small Cell Lung Carcinoma); assay: as above
Outline: as §1

[8] = tested on: NCI-H2170 (Squamous Cell Lung Carcinoma); assay: as above
Outline: as §1

[9] = tested on: NTERA-2-cl-D1 (Other Solid Carcinomas); assay: as above
Outline: as §1

[10] = tested on: OCI-M1 (Acute Myeloid Leukemia); assay: as above
Outline: as §1

[11] = tested on: RS4-11 (B-Lymphoblastic Leukemia); assay: as above
Outline: as §1

[12] = tested on: SCC90 (Head and Neck Carcinoma); assay: as above
Outline: as §1

[13] = tested on: TK (B-Cell Non-Hodgkin's Lymphoma); assay: as above
Outline: as §1

[14] = tested on: BC-1 (B-Cell Non-Hodgkin's Lymphoma); assay: combination Emax (second highest fraction inhibited in the dose matrix, 72 h); higher = more inhibition; extreme values may be limits of the assay
Outline: as §1

[15] = tested on: Daudi (Burkitt's Lymphoma); assay: as above
Outline: as §1

[16] = tested on: NCI-H1435 (Non-Small Cell Lung Carcinoma); assay: as above
Outline: as §1

[17] = tested on: NCI-H1944 (Lung Adenocarcinoma); assay: as above
Outline: as §1

[18] = tested on: RPMI-8402 (T-Lymphoblastic Leukemia); assay: as above
Outline: as §1

[19] = tested on: SK-MEL-24 (Melanoma); assay: as above
Outline: as §1

[20] = tested on: TOV-21G (Ovarian Carcinoma); assay: as above
Outline: as §1
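For Bliss excess, mean over the matrix in this document: after 72 h of two-drug dosing.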

| SMILES | Bliss excess [1] | Bliss excess [2] | Bliss excess [3] | Bliss excess [4] | Bliss excess [5] | Bliss excess [6] | Bliss excess [7] | Bliss excess [8] | Bliss excess [9] | Bliss excess [10] | Bliss excess [11] | Bliss excess [12] | Bliss excess [13] | combination Emax [14] | combination Emax [15] | combination Emax [16] | combination Emax [17] | combination Emax [18] | combination Emax [19] | combination Emax [20] |
| --- | --- | --- | --- | --- | --- | --- | --- | --- | --- | --- | --- | --- | --- | --- | --- | --- | --- | --- | --- | --- |
| COc1nnc2ccc(N3CCC(c4ccc(OCCN5CCN(C)C(=O)[C@H]5C)cc4)CC3)nn12 [AZD5153] + CC1(C)CCC(CN2CCN(c3ccc(C(=O)NS(=O)(=O)c4ccc(NCC5CCOCC5)c([N+](=O)[O-])c4)c(Oc4cnc5[nH]ccc5c4)c3)CC2)=C(c2ccc(Cl)cc2)C1 [Venetoclax] (first compound max 1 µM, 7x7, partner max 1 µM) | -0.0582 | -0.0592 | -0.0488 | -0.0416 | -0.0676 | -0.0509 | -0.0143 | -0.0329 | -0.0251 | -0.062 | -0.0179 | 0.0009 | 0.0193 | 0.935 | 0.58 | 0.169 | 0.566 | 0.791 | 0.474 | 0.623 |
| C=CCn1c(=O)c2cnc(Nc3ccc(N4CCN(C)CC4)cc3)nc2n1-c1cccc(C(C)(C)O)n1 [AZD1775] + C[C@@H]1COCCN1C2=NC(=NC(=C2)C3(CC3)[S@](=N)(=O)C)C4=C5C=CNC5=NC=C4 [AZD6738] (first compound max 1 µM, partner max 10 µM) | -0.0511 | 0.0091 | -0.0482 | -0.0348 | 0.0515 | 0.0271 | 0.0291 | -0.0253 | 0.0123 | 0.0327 | 0.0188 | 0.0167 | 0.0031 | 1 | 0.901 | 0.398 | 0.852 | 1 | 0.725 | 0.71 |
| CC1(C)CCC(CN2CCN(c3ccc(C(=O)NS(=O)(=O)c4ccc(NCC5CCOCC5)c([N+](=O)[O-])c4)c(Oc4cnc5[nH]ccc5c4)c3)CC2)=C(c2ccc(Cl)cc2)C1 [Venetoclax] + C=CCn1c(=O)c2cnc(Nc3ccc(N4CCN(C)CC4)cc3)nc2n1-c1cccc(C(C)(C)O)n1 [AZD1775] (first compound max 1 µM, partner max 1 µM) | -0.0334 | 0.111 | -0.0314 | -0.0952 | -0.0214 | -0.0048 | -0.0029 | -0.0548 | -0.0202 | -0.0505 | 0.0174 | -0.0466 | 0.0168 | 1 | 0.663 | 0.35 | 0.728 | 1 | 0.401 | 0.703 |
| COc1cccc(OCCCN)c1-c1cc(Nc2cnc(C#N)cn2)n[nH]1 [Prexasertib] + O=C(c1cc(Cc2n[nH]c(=O)c3ccccc23)ccc1F)N1CCN(C(=O)C2CC2)CC1 [Olaparib] (first compound max 1 µM, 7x7, partner max 10 µM) | -0.0209 | -0.0476 | -0.0264 | -0.111 | -0.0042 | -0.0745 | 0.0045 | -0.106 | 0.0401 | -0.0322 | -0.0025 | -0.095 | -0.0837 | 0.986 | 0.945 | 0.345 | 0.613 | 1 | 0.607 | 0.579 |
| CC(=O)c1c(C)c2cnc(Nc3ccc(N4CCNCC4)cn3)nc2n(C2CCCC2)c1=O [Palbociclib] + Cn1cnc2c(F)c(Nc3ccc(Br)cc3Cl)c(C(=O)NOCCO)cc21 [Selumetinib] (first compound max 10 µM, 7x7, partner max 10 µM) | -0.0218 | 0.0351 | -0.0029 | 0.0255 | 0.0361 | 0.0263 | -0.0105 | -0.0284 | -0.007 | 0.0125 | -0.0881 | -0.0058 | -0.0196 | 0.91 | 0.415 | 0.147 | 0.534 | 0.957 | 0.654 | 0.519 |
| C=CCn1c(=O)c2cnc(Nc3ccc(N4CCN(C)CC4)cc3)nc2n1-c1cccc(C(C)(C)O)n1 [AZD1775] + O=C(c1cc(Cc2n[nH]c(=O)c3ccccc23)ccc1F)N1CCN(C(=O)C2CC2)CC1 [Olaparib] (first compound max 1 µM, partner max 10 µM) | -0.055 | -0.0521 | -0.0681 | -0.0797 | 0.001 | -0.0548 | 0.0211 | -0.008 | 0.107 | -0.0374 | -0.0192 | -0.0686 | -0.0318 | 0.998 | 0.84 | 0.296 | 0.41 | 1 | 0.465 | 0.587 |
| CC1(C)CCC(CN2CCN(c3ccc(C(=O)NS(=O)(=O)c4ccc(NCC5CCOCC5)c([N+](=O)[O-])c4)c(Oc4cnc5[nH]ccc5c4)c3)CC2)=C(c2ccc(Cl)cc2)C1 [Venetoclax] + C[C@@H](Nc1cc(F)cc(F)c1)c1cc(C(=O)N(C)C)cc2c(=O)cc(N3CCOCC3)oc12 [AZD8186] (first compound max 1 µM, 7x7, partner max 3 µM) | -0.055 | -0.0047 | -0.0295 | 0.0084 | -0.0201 | -0.0636 | 0.0012 | -0.0739 | -0.0199 | -0.0158 | -0.0083 | 0.048 | -0.0454 | 0.264 | 0.271 | 0.203 | 0.184 | 0.431 | 0.321 | 0.149 |
| Cc1c2c(nn1C)CSCc1cc(n(C)n1)CSc1cc(c3ccccc3c1)OCCCc1c(C(=O)O)n(C)c3c-2c(Cl)ccc13 [AZD5991] + Cn1cnc2c(F)c(Nc3ccc(Br)cc3Cl)c(C(=O)NOCCO)cc21 [Selumetinib] (first compound max 1 µM, 7x7, partner max 3 µM) | -0.0162 | -0.0633 | 0.01 | 0.0372 | 0.0259 | -0.042 | 0.0727 | -0.0377 | 0.0115 | 0.03 | 0.0021 | 0.0581 | -0.009 | 1 | 0.394 | 0.26 | 0.304 | 0.692 | 0.705 | 0.335 |
| C[C@@H]1COCCN1c1cc(C2([S@](C)(=N)=O)CC2)nc(-c2ccnc3[nH]ccc23)n1 [AZD6738] + O=C(c1cc(Cc2n[nH]c(=O)c3ccccc23)ccc1F)N1CCN(C(=O)C2CC2)CC1 [Olaparib] (first compound max 10 µM, 7x7, partner max 10 µM) | -0.0003 | -0.0433 | 0.0461 | -0.0169 | -0.021 | 0.047 | 0.0203 | -0.0373 | 0.0898 | -0.017 | -0.0365 | 0.021 | -0.0552 | 0.939 | 0.828 | 0.212 | 0.745 | 1 | 0.551 | 0.538 |
| CS(=O)(=O)CCNCc1ccc(-c2ccc3ncnc(Nc4ccc(OCc5cccc(F)c5)c(Cl)c4)c3c2)o1 [Lapatinib] + C[C@@H](Oc1cc(-c2cnn(C3CCNCC3)c2)cnc1N)c1c(Cl)ccc(F)c1Cl [Crizotinib] (first compound max 10 µM, 7x7, partner max 10 µM) | 0.0028 | -0.003 | -0.0643 | -0.0518 | 0.003 | -0.064 | 0.061 | -0.0026 | -0.0579 | -0.0347 | -0.0183 | 0.0827 | 0.0129 | 0.959 | 0.945 | 0.871 | 0.958 | 0.995 | 0.967 | 0.953 |
| COc1nnc2ccc(N3CCC(c4ccc(OCCN5CCN(C)C(=O)[C@H]5C)cc4)CC3)nn12 [AZD5153] + Cn1cnc2c(F)c(Nc3ccc(Br)cc3Cl)c(C(=O)NOCCO)cc21 [Selumetinib] (first compound max 1 µM, 7x7, partner max 10 µM) | -0.0298 | 0.0023 | 0.0212 | -0.0391 | 0.0397 | -0.0246 | 0.0113 | -0.0712 | 0.0236 | 0.0301 | -0.0454 | 0.098 | -0.0524 | 0.945 | 0.527 | 0.233 | 0.717 | 0.774 | 0.857 | 0.775 |
| CC(=O)c1c(C)c2cnc(Nc3ccc(N4CCNCC4)cn3)nc2n(C2CCCC2)c1=O [Palbociclib] + CC1(C)CCC(CN2CCN(c3ccc(C(=O)NS(=O)(=O)c4ccc(NCC5CCOCC5)c([N+](=O)[O-])c4)c(Oc4cnc5[nH]ccc5c4)c3)CC2)=C(c2ccc(Cl)cc2)C1 [Venetoclax] (first compound max 10 µM, 7x7, partner max 1 µM) | -0.0457 | -0.0391 | -0.0356 | 0.0026 | -0.0716 | 0.0196 | -0.0191 | 0.0227 | -0.0389 | 0.007 | 0.0385 | -0.0435 | 0.0332 | 0.917 | 0.442 | 0.132 | 0.523 | 0.972 | 0.182 | 0.519 |
| Cc1c2c(nn1C)CSCc1cc(n(C)n1)CSc1cc(c3ccccc3c1)OCCCc1c(C(=O)O)n(C)c3c-2c(Cl)ccc13 [AZD5991] + C=CCn1c(=O)c2cnc(Nc3ccc(N4CCN(C)CC4)cc3)nc2n1-c1cccc(C(C)(C)O)n1 [AZD1775] (first compound max 1 µM, partner max 1 µM) | -0.0194 | 0.0035 | 0.0284 | 0.0847 | 0.0395 | -0.0317 | 0.0568 | -0.0274 | 0.0383 | 0.0066 | 0.0066 | -0.0001 | -0.0721 | 1 | 0.706 | 0.276 | 0.737 | 1 | 0.478 | 0.732 |
